This note sets out measurements from PubChem BioAssay AID248 (DTP/NCI, 2004).

Several values for one entry are separate records, joined by “and”; a condition that tells them apart may be missing. Equal values may be shown once. Inconclusive results and toxic doses are left out.

The test system of this assay is L1210 leukemia ip in BDF1 mice, survival T/C. Nature of the assay: NCI In Vivo Anticancer Drug Screen. Data for tumor model L1210 Leukemia (intraperitoneal) in B6D2F1 (BDF1) mice. As to conditions: endpoint: mean survival time, higher = longer survival. A digest of the protocol:
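Survival endpoint. Drug-treated group vs vehicle group, expressed as T divided by C. Tumor passaged by transplantation.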

As to `O=[N+]([O-])c1ccn(O)c(=NC2CCCCC2)c1`, the T/C is, setting by setting: (dose: 100.0 mg/kg/injection, schedule: Q01DX001 (ip), vehicle: saline) 98 % of control; (dose: 200.0 mg/kg/injection, schedule: Q01DX001 (ip), vehicle: saline) 93 % of control; (dose: 400.0 mg/kg/injection, schedule: Q01DX001 (ip), vehicle: saline) 100 % of control.

Turning to `CN(CCO)C1=C(N2CC2)C(=O)C(N(C)CCO)=C(N2CC2)C1=O`, the T/C (dose: 0.12 mg/kg/injection, schedule: Q01DX001 (ip), vehicle: saline) was 103 % of control; the T/C (dose: 0.12 mg/kg/injection, schedule: Q01DX009 (ip), vehicle: saline) is 104 % of control and 105 % of control; the T/C (dose: 0.24 mg/kg/injection, schedule: Q04DX003 (ip), vehicle: saline) is 119 % of control; the T/C (dose: 0.25 mg/kg/injection, schedule: Q01DX001 (ip), vehicle: saline) is 100 % of control; the T/C (dose: 0.25 mg/kg/injection, schedule: Q01DX009 (ip), vehicle: saline) is 121 % of control; the T/C (dose: 0.5 mg/kg/injection, schedule: Q01DX001 (ip), vehicle: saline) is 112 % of control. Besides, the T/C by setting is: (dose: 0.55 mg/kg/injection, schedule: Q04DX003 (ip), vehicle: saline) 122 % of control; (dose: 1.0 mg/kg/injection, schedule: Q01DX009 (ip), vehicle: saline) 184 % of control and 214 % of control; (dose: 1.5 mg/kg/injection, schedule: Q04DX003 (ip), vehicle: saline) 111 % of control; (dose: 3.0 mg/kg/injection, schedule: Q04DX003 (ip), vehicle: saline) 97 % of control.

Consider `Cc1c2ccccc2c(C)c2c1cc(O)c1ccccc12`, for which the T/C by setting is: (dose: 50.0 mg/kg/injection, schedule: Q01DX009 (ip), vehicle: Klucel (hydroxypropylcellulose) (HPC)) 113 % of control; (dose: 100.0 mg/kg/injection, schedule: Q01DX009 (ip), vehicle: Klucel (hydroxypropylcellulose) (HPC)) 121 % of control.
